Several values for one entry are separate records, joined by “and”; a condition that tells them apart may be missing. Equal values may be shown once.
Experiments:
[1] = tested on: rabbit aortic smooth muscle cells (SMC); assay: [3H]-thymidine incorporation / cell cycle arrest in serum-stimulated smooth muscle cells; type: cell-based
Procedure: Experiments were conducted to determine the specific phase of the cell cycle in which SMC treated with halofuginone were arrested.
As determined by [^3H]-thymidine incorporation, addition of 10% FBS to growth-arrested, quiescent SMC promotes entry of the cells to S phase after a G1 period of 16 hours. Maximal DNA synthesis was seen 20 hours after serum-stimulation (FIG. 1).
It was next determined whether halofuginone arrested proliferation at a specific stage in the cell cycle. For these experiments, quiescent SMCs were kept in 10% FBS plus 10^−7 M halofuginone for 24 hours. The cultures were then washed and placed in 10% FBS with [^3H]-thymidine and without halofuginone. At various times after halofuginone removal, the cells were harvested and thymidine incorporation was determined. When halofuginone-treated cells were released from growth-arrest, there was a lag of 4-6 hours before initiation of DNA synthesis, which peaked by 10 hours (FIG. 1).

[2] = tested on: rat mesangial cells (RMC); assay: Cell cycle analysis of mesangial cells by propidium iodide FACScan; type: cell-based; conditions: 150 ng/ml halofuginone, 24 hours, 10% FCS
Procedure: Further experiments were conducted to determine whether halofuginone arrests mesangial cell proliferation at a specific phase of the cell cycle.
For this purpose sub confluent RMC's were kept in 10% FCS in the absence or presence of 150 ng/ml halofuginone for 24 hours. The cells were then harvested, stained with propidium iodide and analyzed by FACScan. The percentage of cells progressing into G2/M phase was reduced by halofuginone from 20% to 7%. The percentage of cells in G0/G1 was increased from 38% in the absence of halofuginone to 65% in the presence of halofuginone.

U266 cells = assay: Cell cycle analysis of multiple myeloma cells by flow cytometry; type: cell-based; conditions: 48 hours, different concentrations
Procedure: Multiple Myeloma (MM) cell line U266B1 was purchased from ATCC (TIB-196).
Cells (10^6) were incubated for 48 hours with different concentrations of halofuginone. The cells were permeabilized with 70% ethanol in PBS for 30 minutes at 4° C., and then incubated with 0.5 ml of a 50 μg/ml Propidium Iodide solution containing 20 U/ml RnaseA for 30 minutes. Cells were analyzed by flow cytometry.

[3] = tested on: radiation-induced fibrosis (leg contraction); assay: Leg contraction model of radiation-induced fibrosis; type: in vivo, mice
Procedure: Mice were injected intraperitoneally once daily with 1-5 μg/mouse of halofuginone, for a period of 4 months.
The right leg only of each animal was radiated with 35Gy or 45Gy. […] Measurements were taken within time periods of 2 to 4 months after radiation.

[4] = tested on: pancreatic cancer cell lines 3602 Xrt and 3602 Zyrd/Xrt; assay: Radiation survival of pancreatic cancer cell lines pre-treated with halofuginone; type: cell-based, human; conditions: 250 nM halofuginone for 24 hr, then radiated with 0-8 Gy
Procedure: Two pancreatic cancer cell lines: 3602 Xrt and 3602 Zyrd/Xrt were incubated with or without 250 nM halofuginone for 24 hr, than radiated with 0-8 Gy. Survival fraction of the cell was determined.

[5] = tested on: human T98G glioblastoma xenograft (sc tumor); type: in vivo, mice; conditions: BCNU 15 mg/kg ip, days 7, 9, 11, alone
Text: Each group contained 5 mice.

[6] = tested on: human T98G glioblastoma (ic tumor); assay: Human T98G glioblastoma implanted intracranially, survival (increase-in-lifespan); conditions: BCNU 15 mg/kg ip, days 7, 9, 11, alone
Procedure: Halofuginone was tested in the human T98G glioblastoma xenograft implanted subcutaneously or intracranially. Mice were implanted with the human T98G glioblastoma tumor cells subcutaneously in a thigh or intracranially.
Halofuginone was administered orally by gavage at dose levels of 0.1,0.2, and 0.5 mg/kg/day, once per day, on days 4 through 34 days post tumor implantation. Each group contained 5 mice.
The endpoint for the subcutaneous tumor was tumor growth delay while the endpoint for the intracranial tumor was increase-in-lifespan (survival).

[7] = cited from earlier work
[8] = 24 hours 10^-7 M halofuginone + 10% FBS, then washed

Compound: O=C(CC1NCCC[C@H]1O)Cn1cnc2cc(Br)c(Cl)cc2c1=O (stereo in doubt) [halofuginone, 7-bromo-6-chloro-3-[3-(3-hydroxy-2-piperidinyl)-2-oxopropyl]-4(3H)-quinazolinone]
- [3H]-thymidine incorporation ([1]; 10^-7 M halofuginone added with 10% FBS to quiescent SMC): only low levels
- lag before initiation of DNA synthesis after release from growth-arrest [1, 8]: 4 to 6 h
- time of peak DNA synthesis after halofuginone removal [1, 8]: 10 h
- cell cycle phase of arrest ([1]; continual presence of halofuginone): reversibly arrest at late G1 phase
- percentage of cells in G0/G1 [2]: 65%
- percentage of cells progressing into G2/M phase [2]: 7%
- number of cells arrested in G1 phase (U266 cells): elevation
- leg length difference between the right and left leg ([3]; 1-5 μg/mouse ip once daily, 35Gy or 45Gy, 2 and 4 months post radiation): dramatic decrease
- condition of irradiated leg (stiffness, skin) ([3]; versus mice that did not receive halofuginone): definitely less stiff, and the skin was less dry
- decrease in the survival fraction [4]: approximately 50%

Compound: O=NN(CCCl)C(=O)NCCCl [BCNU, 1,3-bis(2-chloroethyl)-1-nitrosourea]
- TUMOR GROWTH DELAY Days (sc tumor) [5]: 3.8 days and 3.9 ± 0.4 days
- SURVIVAL Days (ic tumor) [6]: 97 ± 21 days

Compound: Bleomycin
- death of patients associated with pulmonary fibrosis [7]: 1% to 2
- treated patients with induced pulmonary fibrosis [7]: 10% to 30
